Laboratory results: patent US20260224588A1, “BENZODIAZEPINONE-DERIVED INHIBITORS OF EGFR AND HER2” (The Research Foundation for the State University of New York, priority 2023, published 2026)
“Also recorded” adds a separate entry of the source.

What was measured:
[1] = target: T1, RSK1(Kin.Dom.2-C-terminal) (Homo sapiens, UniProt Q15418); test: KINOMEscan; type: binding; details: 1 μM of compound 4; read-out: POC
T1 construct: RSK1(Kin.Dom.2-C-terminal); purchased Eurofins DiscoverX Corporation (KINOMEscan screening service)

[2] = target: ICK (Homo sapiens, UniProt Q9UPZ9); test: KINOMEscan; type: binding; details: 1 μM of compound 4; read-out: POC
[3] = target: T2, TAK1 (Homo sapiens, UniProt O43318); test: KINOMEscan; type: binding; details: 1 μM of compound 4; read-out: POC
T2 construct: purchased Eurofins DiscoverX Corporation

[4] = target: T3, HIPK4 (Homo sapiens, UniProt Q8NE63); test: KINOMEscan; type: binding; details: 1 μM of compound 4; read-out: POC
T3 construct: purchased Eurofins DiscoverX Corporation

[5] = target: T4, TRPM6 (Homo sapiens, UniProt Q9BX84); test: KINOMEscan; type: binding; details: 1 μM of compound 4; read-out: POC
T4 construct: purchased Eurofins DiscoverX Corporation

[6] = target: T5, WEE2 (Homo sapiens, UniProt P0C1S8); test: KINOMEscan; type: binding; details: 1 μM of compound 4; read-out: POC
T5 construct: purchased Eurofins DiscoverX

[7] = target: PIK3CA(M1043I) (Homo sapiens, UniProt P42336, M1043I); test: KINOMEscan; type: binding; details: 1 μM of compound 4; read-out: POC
[8] = target: MET (Homo sapiens, UniProt P08581); test: KINOMEscan; type: binding; details: 1 μM of compound 4; read-out: POC
[9] = target: MARK2 (Homo sapiens, UniProt Q7KZI7); test: KINOMEscan; type: binding; details: 1 μM of compound 4; read-out: POC
[10] = target: PIK3CB (Homo sapiens, UniProt P42338); test: KINOMEscan; type: binding; details: 1 μM of compound 4; read-out: POC
[11] = target: EGFR(L858R) (Homo sapiens, UniProt P00533, L858R); test: KINOMEscan; type: binding; set-up: purchased Eurofins DiscoverX (KINOMEscan service); details: 1 μM of compound 4; read-out: POC
[12] = target: CSNK2A2 (Homo sapiens, UniProt P19784); test: KINOMEscan; type: binding; details: 1 μM of compound 4; read-out: POC
[13] = target: T6, RET(M918T) (Homo sapiens, UniProt P07949, M918T); test: KINOMEscan; type: binding; details: 1 μM of compound 4; read-out: POC
T6 construct: purchased Eurofins DiscoverX Corporation (KINOMEscan screening service)

[14] = system: EGFR (delE746-A750) in HCC827 cells; test: Western blotting of EGFR phosphorylation; type: cell-based, human; details: 6 hours treatment
Description: FIG. 2. […] All experiments performed after 6 hours treatments of inhibitors or DMSO controls and Western blots are representative of at least three independent experiments.
Western blotting. Cells were collected and lysed with lysis buffer (5M NaCl, 1M TRIS pH 8.0, 10% SDS, 10% Triton X-100 and a tablet of protease inhibitors) and processed for Western blotting analysis. Primary antibodies used; phospho-EGFR (Tyr1068; #2234, 1:1,000), EGFR (#4267; 1:1,000), phospho-AKT (Ser473; #4060, 1:1,000), AKT (#9272, 1:1,000), phospho-ERK1/2 (Thr202/Tyr204; #4370, 1:1,000), and ERK1/2 (#4695, 1:1,000) antibodies; were purchased from Cell Signaling Technology. Secondary Goat anti-rabbit IgG starbright blue 700 and Anti-tubulin hFAB Rhodamine Tubulin were purchased from Bio-rad.

[15] = target: T7, PFTAIRE2 (Homo sapiens, UniProt Q96Q40); test: KINOMEscan; type: binding; details: 1 μM of compound 4; read-out: POC
T7 construct: purchased Eurofins DiscoverX Corporation (KINOMEscan)

[16] = target: CSNK1G3 (Homo sapiens, UniProt Q9Y6M4); test: KINOMEscan; type: binding; details: 1 μM of compound 4; read-out: POC
[17] = target: NEK4 (Homo sapiens, UniProt P51957); test: KINOMEscan; type: binding; details: 1 μM of compound 4; read-out: POC
[18] = target: T8, ULK1 (Homo sapiens, UniProt O75385); test: KINOMEscan; type: binding; details: 1 μM of compound 4; read-out: POC
T8 construct: purchased Eurofins DiscoverX

[19] = target: PFTK1 (Homo sapiens, UniProt O94921); test: KINOMEscan; type: binding; details: 1 μM of compound 4; read-out: POC
[20] = target: PIM3 (Homo sapiens, UniProt Q86V86); test: KINOMEscan; type: binding; details: 1 μM of compound 4; read-out: POC
[21] = system: FLT3(ITD + F691L); test: KINOMEscan; type: binding; details: 1 μM of compound 4
[22] = target: PIK3CA(C420R) (Homo sapiens, UniProt P42336, C420R); test: KINOMEscan; type: binding; details: 1 μM of compound 4; read-out: POC
[23] = target: KIT-autoinhibited (Homo sapiens, UniProt P10721); test: KINOMEscan; type: binding; details: 1 μM of compound 4; read-out: POC
[24] = target: T9, WNK4 (Homo sapiens, UniProt Q96J92); test: KINOMEscan; type: binding; details: 1 μM of compound 4; read-out: POC
T9 construct: purchased Eurofins DiscoverX

[25] = target: MAST1 (Homo sapiens, UniProt Q9Y2H9); test: KINOMEscan; type: binding; details: 1 μM of compound 4; read-out: POC
[26] = target: BRAF (Homo sapiens, UniProt P15056); test: KINOMEscan; type: binding; details: 1 μM of compound 4; read-out: POC
[27] = target: MLK2 (Homo sapiens, UniProt Q02779); test: KINOMEscan; type: binding; details: 1 μM of compound 4; read-out: POC
[28] = target: LCK (Homo sapiens, UniProt P06239); test: KINOMEscan; type: binding; details: 1 μM of compound 4; read-out: POC
[29] = target: T10, EGFR(G719C) (Homo sapiens, UniProt P00533, G719C); test: KINOMEscan; type: binding; details: 1 μM of compound 4; read-out: POC
T10 construct: purchased Eurofins DiscoverX (KINOMEscan service)

[30] = target: T11, EPHB2 (Homo sapiens, UniProt P29323); test: KINOMEscan; type: binding; details: 1 μM of compound 4; read-out: POC
T11 construct: purchased Eurofins DiscoverX (KINOMEscan service)

[31] = target: PIK3CG (Homo sapiens, UniProt P48736); test: KINOMEscan; type: binding; details: 1 μM of compound 4; read-out: POC
[32] = target: PIK3CA(Q546K) (Homo sapiens, UniProt P42336, Q546K); test: KINOMEscan; type: binding; details: 1 μM of compound 4; read-out: POC

T5 sequence (P0C1S8 whole entry): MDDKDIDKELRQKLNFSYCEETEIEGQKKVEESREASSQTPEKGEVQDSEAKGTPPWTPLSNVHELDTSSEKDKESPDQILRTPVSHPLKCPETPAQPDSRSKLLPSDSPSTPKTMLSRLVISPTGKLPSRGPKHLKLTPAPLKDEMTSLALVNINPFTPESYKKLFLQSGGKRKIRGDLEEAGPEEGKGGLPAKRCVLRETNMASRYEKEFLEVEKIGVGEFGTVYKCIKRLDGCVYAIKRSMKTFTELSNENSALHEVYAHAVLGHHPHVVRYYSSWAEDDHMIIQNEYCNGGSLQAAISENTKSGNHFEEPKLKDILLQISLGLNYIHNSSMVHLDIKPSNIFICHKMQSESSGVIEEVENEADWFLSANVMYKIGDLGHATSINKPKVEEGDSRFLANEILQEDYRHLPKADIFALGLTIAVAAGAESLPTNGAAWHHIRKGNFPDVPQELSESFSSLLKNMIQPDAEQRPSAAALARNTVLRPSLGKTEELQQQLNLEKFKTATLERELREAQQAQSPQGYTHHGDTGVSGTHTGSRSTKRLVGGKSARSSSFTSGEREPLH
T9 sequence (Q96J92 whole entry): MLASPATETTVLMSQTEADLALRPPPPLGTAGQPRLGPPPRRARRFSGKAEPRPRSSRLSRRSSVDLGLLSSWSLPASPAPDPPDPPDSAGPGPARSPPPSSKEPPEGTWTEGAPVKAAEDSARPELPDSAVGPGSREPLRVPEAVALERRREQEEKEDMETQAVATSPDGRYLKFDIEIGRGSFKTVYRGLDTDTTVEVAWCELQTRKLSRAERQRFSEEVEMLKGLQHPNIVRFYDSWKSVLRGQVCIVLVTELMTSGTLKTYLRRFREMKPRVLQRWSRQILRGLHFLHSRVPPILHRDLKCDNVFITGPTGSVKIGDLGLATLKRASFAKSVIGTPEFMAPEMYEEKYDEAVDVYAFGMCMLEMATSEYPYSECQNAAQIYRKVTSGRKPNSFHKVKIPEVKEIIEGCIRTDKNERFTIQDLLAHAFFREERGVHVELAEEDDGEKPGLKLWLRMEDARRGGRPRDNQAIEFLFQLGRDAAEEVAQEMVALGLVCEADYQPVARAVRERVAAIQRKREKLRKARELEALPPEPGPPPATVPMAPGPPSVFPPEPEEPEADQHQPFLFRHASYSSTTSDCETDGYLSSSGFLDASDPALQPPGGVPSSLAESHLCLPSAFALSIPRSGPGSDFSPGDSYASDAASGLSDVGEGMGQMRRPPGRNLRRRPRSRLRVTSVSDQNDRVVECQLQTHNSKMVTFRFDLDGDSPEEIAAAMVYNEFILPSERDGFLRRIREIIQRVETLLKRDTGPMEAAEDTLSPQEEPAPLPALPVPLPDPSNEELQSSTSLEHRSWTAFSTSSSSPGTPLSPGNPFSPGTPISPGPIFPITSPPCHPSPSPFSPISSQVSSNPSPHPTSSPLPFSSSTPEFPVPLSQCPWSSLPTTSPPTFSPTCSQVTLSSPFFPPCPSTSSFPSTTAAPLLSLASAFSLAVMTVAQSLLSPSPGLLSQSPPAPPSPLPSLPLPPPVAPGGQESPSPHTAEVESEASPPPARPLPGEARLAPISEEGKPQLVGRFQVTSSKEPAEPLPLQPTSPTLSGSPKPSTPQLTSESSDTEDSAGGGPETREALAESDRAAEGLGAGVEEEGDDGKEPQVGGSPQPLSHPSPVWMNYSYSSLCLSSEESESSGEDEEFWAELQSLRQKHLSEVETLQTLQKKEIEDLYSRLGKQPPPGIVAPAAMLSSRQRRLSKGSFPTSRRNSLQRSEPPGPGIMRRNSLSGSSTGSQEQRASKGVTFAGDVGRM
T8 sequence (O75385 whole entry): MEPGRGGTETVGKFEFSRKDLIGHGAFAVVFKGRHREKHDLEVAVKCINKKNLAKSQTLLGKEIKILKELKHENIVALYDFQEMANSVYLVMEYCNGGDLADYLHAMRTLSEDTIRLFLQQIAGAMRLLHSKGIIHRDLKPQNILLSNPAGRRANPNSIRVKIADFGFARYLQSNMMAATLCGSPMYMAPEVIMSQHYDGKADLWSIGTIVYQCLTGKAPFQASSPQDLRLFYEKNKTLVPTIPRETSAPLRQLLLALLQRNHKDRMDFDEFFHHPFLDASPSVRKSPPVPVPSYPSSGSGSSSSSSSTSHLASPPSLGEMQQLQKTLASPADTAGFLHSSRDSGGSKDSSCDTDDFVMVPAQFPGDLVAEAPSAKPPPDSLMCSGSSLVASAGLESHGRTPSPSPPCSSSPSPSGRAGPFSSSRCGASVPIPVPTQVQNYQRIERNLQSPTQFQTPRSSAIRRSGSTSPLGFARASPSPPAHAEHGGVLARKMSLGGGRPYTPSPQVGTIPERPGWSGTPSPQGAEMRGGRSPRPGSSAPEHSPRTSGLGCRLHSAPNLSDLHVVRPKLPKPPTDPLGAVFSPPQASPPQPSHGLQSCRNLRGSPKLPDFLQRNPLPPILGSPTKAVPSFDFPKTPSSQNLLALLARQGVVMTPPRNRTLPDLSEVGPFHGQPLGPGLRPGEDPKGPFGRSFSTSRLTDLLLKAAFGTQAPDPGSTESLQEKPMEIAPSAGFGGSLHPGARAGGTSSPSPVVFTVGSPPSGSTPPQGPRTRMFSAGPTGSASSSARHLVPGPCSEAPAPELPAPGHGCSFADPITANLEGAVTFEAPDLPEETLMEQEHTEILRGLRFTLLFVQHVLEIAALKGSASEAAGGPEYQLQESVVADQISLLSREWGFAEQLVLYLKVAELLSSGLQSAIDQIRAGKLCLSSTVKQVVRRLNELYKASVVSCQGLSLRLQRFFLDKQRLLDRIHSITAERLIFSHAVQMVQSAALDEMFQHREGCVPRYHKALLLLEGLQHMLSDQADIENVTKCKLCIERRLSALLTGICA
Chain of MAST1 (Q9Y2H9 whole entry): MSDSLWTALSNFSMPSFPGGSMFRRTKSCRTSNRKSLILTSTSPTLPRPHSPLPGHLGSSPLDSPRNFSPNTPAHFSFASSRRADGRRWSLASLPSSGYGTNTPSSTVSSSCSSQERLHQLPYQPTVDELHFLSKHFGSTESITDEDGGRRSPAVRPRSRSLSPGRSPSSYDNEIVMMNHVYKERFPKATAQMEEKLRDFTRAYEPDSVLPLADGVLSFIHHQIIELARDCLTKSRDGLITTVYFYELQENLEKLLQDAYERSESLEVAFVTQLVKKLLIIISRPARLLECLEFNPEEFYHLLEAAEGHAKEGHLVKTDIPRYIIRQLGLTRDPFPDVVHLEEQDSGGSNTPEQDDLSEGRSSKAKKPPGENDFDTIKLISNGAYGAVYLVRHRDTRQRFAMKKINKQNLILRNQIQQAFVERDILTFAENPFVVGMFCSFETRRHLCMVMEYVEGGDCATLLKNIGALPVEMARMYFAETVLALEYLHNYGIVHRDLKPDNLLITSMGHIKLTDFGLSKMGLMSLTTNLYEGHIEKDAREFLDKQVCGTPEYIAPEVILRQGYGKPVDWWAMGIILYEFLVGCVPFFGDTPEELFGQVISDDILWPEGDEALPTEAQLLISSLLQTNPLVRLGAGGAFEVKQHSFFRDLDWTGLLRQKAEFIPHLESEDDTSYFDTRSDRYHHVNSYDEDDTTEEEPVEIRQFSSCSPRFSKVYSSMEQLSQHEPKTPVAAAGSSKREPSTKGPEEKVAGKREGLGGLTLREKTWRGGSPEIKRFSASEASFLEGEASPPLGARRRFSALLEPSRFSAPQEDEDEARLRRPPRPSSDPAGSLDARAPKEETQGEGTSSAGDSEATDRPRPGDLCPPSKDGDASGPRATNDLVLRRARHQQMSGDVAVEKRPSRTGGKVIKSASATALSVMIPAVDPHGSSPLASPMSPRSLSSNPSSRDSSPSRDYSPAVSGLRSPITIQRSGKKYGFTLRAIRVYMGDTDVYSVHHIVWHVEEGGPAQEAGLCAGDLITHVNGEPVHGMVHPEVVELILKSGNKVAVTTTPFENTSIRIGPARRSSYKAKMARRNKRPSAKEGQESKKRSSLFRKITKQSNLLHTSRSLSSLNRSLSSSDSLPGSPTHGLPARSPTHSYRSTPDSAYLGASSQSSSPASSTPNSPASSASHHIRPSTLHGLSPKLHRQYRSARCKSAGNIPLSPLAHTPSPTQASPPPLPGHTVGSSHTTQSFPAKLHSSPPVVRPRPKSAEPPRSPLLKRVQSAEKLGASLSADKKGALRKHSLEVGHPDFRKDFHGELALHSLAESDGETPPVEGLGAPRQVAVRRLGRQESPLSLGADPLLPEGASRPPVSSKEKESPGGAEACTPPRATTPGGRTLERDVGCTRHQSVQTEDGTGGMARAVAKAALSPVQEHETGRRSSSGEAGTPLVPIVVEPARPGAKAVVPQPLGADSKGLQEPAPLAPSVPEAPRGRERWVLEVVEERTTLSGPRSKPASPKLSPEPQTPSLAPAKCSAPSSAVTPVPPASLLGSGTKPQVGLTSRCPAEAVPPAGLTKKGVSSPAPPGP
Chain of LCK (P06239 whole entry): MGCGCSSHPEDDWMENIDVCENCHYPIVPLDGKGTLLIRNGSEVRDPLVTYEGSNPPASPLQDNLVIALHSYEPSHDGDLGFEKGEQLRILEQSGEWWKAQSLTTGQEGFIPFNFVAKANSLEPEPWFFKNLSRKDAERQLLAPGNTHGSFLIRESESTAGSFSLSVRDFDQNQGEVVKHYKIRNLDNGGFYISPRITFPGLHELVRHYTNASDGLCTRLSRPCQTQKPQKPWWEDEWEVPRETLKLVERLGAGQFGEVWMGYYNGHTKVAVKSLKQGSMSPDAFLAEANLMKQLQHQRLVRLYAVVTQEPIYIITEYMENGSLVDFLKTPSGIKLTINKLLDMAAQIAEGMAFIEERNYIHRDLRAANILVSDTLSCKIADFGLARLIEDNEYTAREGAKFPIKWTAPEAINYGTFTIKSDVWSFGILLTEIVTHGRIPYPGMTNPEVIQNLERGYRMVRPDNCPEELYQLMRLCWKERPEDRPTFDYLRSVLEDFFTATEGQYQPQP

Compound `C=CC(=O)Nc1ccc(OC)c(Nc2cc(-c3[nH]c(CC)nc3-c3cccc(NC(=O)c4cccc5c4NC(=O)c4ccccc4N5)c3)ccn2)c1` [Compound 4, N-(3-(5-(2-((5-Acrylamido-2-methoxyphenyl)amino)pyridin-4-yl)-2-ethyl-1H-imidazol-4-yl)phenyl)-11-oxo-10,11-dihydro-5H-dibenzo[b,e][1,4]diazepine-9-carboxamide] has a remaining binding at 1 µM [1] of 75%, a remaining binding at 1 µM [2] of 100% and a remaining binding at 1 µM [3] of 95%. The remaining binding at 1 µM [4] was 92%, the remaining binding at 1 µM [5] was 99% and the remaining binding at 1 µM [6] was 98%. It also gave a remaining binding at 1 µM [7] of 55%, a remaining binding at 1 µM [8] of 69% and a remaining binding at 1 µM [9] of 85%. The remaining binding at 1 µM [10] was 90%, the remaining binding at 1 µM [11] was 5% and the remaining binding at 1 µM [12] was 58%. The remaining binding at 1 µM [13] was 99%, the “EGFR phosphorylation (Western blot)” value [14] was “similarly active; also recorded: effectively ablates EGFR (delE746-A750) phosphorylation” and the remaining binding at 1 µM [15] was 84%. For the same compound, the remaining binding at 1 µM [16] was 98%, the remaining binding at 1 µM [17] was 100% and the remaining binding at 1 µM [18] was 100%. The remaining binding at 1 µM [19] was 90%, the remaining binding at 1 µM [20] was 100% and the POC [21] was 79. The remaining binding at 1 µM [22] was 66%, the remaining binding at 1 µM [23] was 100% and the remaining binding at 1 µM [24] was 85%. The remaining binding at 1 µM [25] was 100%, the remaining binding at 1 µM [26] was 90% and the remaining binding at 1 µM [27] was 97%. The remaining binding at 1 µM [28] was 7.7%, the remaining binding at 1 µM [29] was 6.5% and the remaining binding at 1 µM [30] was 100%. For the same compound, the remaining binding at 1 µM [31] was 65% and the remaining binding at 1 µM [32] was 100%.
